From paper PMC9694334, “Synthesis and Biological Evaluation of a Fused Structure of Indolizine and Pyrrolo[1,2-c]pyrimidine: Identification of Its Potent Anticancer Activity against Liver Cancer Cells” (Pharmaceuticals, 2022)

Experiments:
[1] = test system: HepG2 cells; assay: Cell viability assay (MTS) in HepG2 cells; type: cell-based; conditions: mean; for % Inhibition of Cell Viability at 10 μM HepG2: n = 3; for IC50: Homo sapiens, MTS, n = 5, 72 h for 5r (Figure 2)
Experimental: (§1) HepG2, Huh7, H1299, HT29, AGS and A549 cells were purchased from the Korean Cell Line Bank (Seoul, Korea) and HaCaT cells were obtained from Prof. Sohee Kwon (Yonsei University, Korea). Liver cancer cells (HepG2), human keratinocyte cells (HaCaT), and lung cancer cells (A549) were grown in DMEM high-glucose medium, liver cancer cells (Huh7) and non-small cell lung cancer cells (H1299) were grown in RPMI 1640, and gastric cancer cells (AGS) were grown in Coon’s modified F12 medium. All media were supplemented with 10% FBS, 100 Units/mL penicillin, and 100 μg/mL streptomycin. All cells were incubated at 37 °C, 5% CO2 and 95% humidity.
(§2) Cell viability assay was conducted using Cell Titer 96® AQueous One Solution Cell proliferation Assay kit (Promega, Madison, WI, USA). Five cancer cells and HaCaT cells were plated in 96-well microplates with growth medium for 24 h. When cell confluency reached ~30%, cells were treated with DMSO (vehicle) and test compounds. The medium and test compounds were replaced every 24 h. To measure cell viability, the cells were incubated with MTS solution for 1 h. The absorbance was measured by using Infinite M200 microplate reader (Tecan, Männedorf, Switzerland) at 490 nm.
(§3) Figure 2 Effect of 5r on cell viability in HepG2, Huh7, AGS, H1299, A549, HaCaT, NIH3T3, and HEK293T cells. (A–H) HepG2, Huh7, AGS, H1299, A549, HaCaT, NIH3T3, and HEK293T cells were cultured with 5r at the indicated concentrations for 72 h, and medium was replaced every 24 h with freshly added 5r. Cell viability was measured by MTS analysis (mean ± S.D., n = 5). * p < 0.05, ** p < 0.01, *** p < 0.001.

[2] = test system: H1299 cells; assay: Cell viability assay (MTS) in H1299 cells; type: cell-based; conditions: 10 μM, mean, n = 3
Experimental: as §1, §2, §3

[3] = test system: HT29 cells; assay: Cell viability assay (MTS) in HT29 cells; type: cell-based; conditions: mean, n = 3
Experimental: as §1, §2

[4] = test system: AGS cells; assay: Cell viability assay (MTS) in AGS cells; type: cell-based; conditions: 10 μM, mean, n = 3
Experimental: as §1, §2, §3

[5] = test system: A549 cells; assay: Cell viability assay (MTS) in A549 cells; type: cell-based; conditions: 10 μM, mean, n = 3
Experimental: as §1, §2, §3

[6] = test system: Huh7 cells; assay: Cell viability assay (MTS) in Huh7 cells; type: cell-based; conditions: Homo sapiens, Huh-7, mean, n = 5, 72 h for 5r (Figure 2)
Experimental: as §1, §2, §3

[7] = test system: HaCaT cells; assay: Cell viability assay (MTS) in HaCaT cells; type: cell-based, human; conditions: Homo sapiens, mean, n = 5
Experimental: as §1, §2, §3

Row | IC50 [1] [µM] | IC50 [6] [µM] | SMILES | % Inhibition of Cell Viability at 10 μM HepG2 [1] [%] | % Inhibition of Cell Viability at 10 μM H1299 [2] [%] | % Inhibition of Cell Viability at 10 μM HT29 [3] [%] | % Inhibition of Cell Viability at 10 μM AGS [4] [%] | % Inhibition of Cell Viability at 10 μM A549 [5] [%] | IC50 [7] [µM]
1 | – | – | N#Cc1c2c3cccn3c(-c3ccccc3)nc2n2ccccc12 [Compound 5a, 5-Phenylpyrrolo[1′,2′:1,6]pyrimido[5,4-b]indolizine-12-carbonitrile] | 85.0 | 81.5 | <25 | <25 | <25 | –
2 | 1.17 | 0.87 | COc1cc(O)c(-c2nc3c(c(C#N)c4ccccn43)c3cccn23)cc1OC [Compound 5aa, 5-(2-Hydroxy-4,5-dimethoxyphenyl)pyrrolo[1′,2′:1,6]pyrimido[5,4-b]indolizine-12-carbonitrile] | – | – | – | – | – | 2.21
3 | 0.84 | 0.71 | N#Cc1c2c3cccn3c(-c3cc(Cl)ccc3O)nc2n2ccccc12 [Compound 5ab, 5-(5-Chloro-2-hydroxyphenyl)pyrrolo[1′,2′:1,6]pyrimido[5,4-b]indolizine-12-carbonitrile] | – | – | – | – | – | 2.3
4 | – | – | COc1ccc(-c2nc3c(c(C#N)c4ccccn43)c3cccn23)cc1 [Compound 5b, 5-(4-Methoxyphenyl)pyrrolo[1′,2′:1,6]pyrimido[5,4-b]indolizine-12-carbonitrile] | 57.0 | 79.1 | <25 | <25 | 25.5 | –
5 | – | – | COc1ccc(-c2nc3c(c(C#N)c4ccccn43)c3cccn23)cc1OC [Compound 5c, 5-(3,4-Dimethoxyphenyl)pyrrolo[1′,2′:1,6]pyrimido[5,4-b]indolizine-12-carbonitrile] | 76.7 | 94.0 | 44.0 | 56.0 | 47.1 | –
6 | – | – | COc1cc(OC)cc(-c2nc3c(c(C#N)c4ccccn43)c3cccn23)c1 [Compound 5d, 5-(3,5-Dimethoxyphenyl)pyrrolo[1′,2′:1,6]pyrimido[5,4-b]indolizine-12-carbonitrile] | 57.3 | 83.4 | <25 | <25 | <25 | –
7 | – | – | COc1cc(-c2nc3c(c(C#N)c4ccccn43)c3cccn23)cc(OC)c1OC [Compound 5e, 5-(3,4,5-Trimethoxyphenyl)pyrrolo[1′,2′:1,6]pyrimido[5,4-b]indolizine-12-carbonitrile] | 37.7 | 89.0 | <25 | <25 | 25.3 | –
8 | – | – | N#Cc1c2c3cccn3c(-c3ccc4ccccc4c3)nc2n2ccccc12 [Compound 5f, 5-(Naphthalen-2-yl)pyrrolo[1′,2′:1,6]pyrimido[5,4-b]indolizine-12-carbonitrile] | 92.5 | 88.4 | <25 | <25 | <25 | –
9 | – | – | N#Cc1c2c3cccn3c(-c3cccc4ccccc34)nc2n2ccccc12 [Compound 5g, 5-(Naphthalen-1-yl)pyrrolo[1′,2′:1,6]pyrimido[5,4-b]indolizine-12-carbonitrile] | 49.2 | 82.8 | <25 | <25 | <25 | –
10 | – | – | N#Cc1c2c3cccn3c(-c3ccc(Cl)cc3)nc2n2ccccc12 [Compound 5h, 5-(4-Chlorophenyl)pyrrolo[1′,2′:1,6]pyrimido[5,4-b]indolizine-12-carbonitrile] | 88.4 | 80.0 | 26.9 | 31.0 | 52.5 | –
11 | – | – | N#Cc1c2c3cccn3c(-c3ccc(Br)cc3)nc2n2ccccc12 [Compound 5i, 5-(4-Bromophenyl)pyrrolo[1′,2′:1,6]pyrimido[5,4-b]indolizine-12-carbonitrile] | 87.4 | 92.1 | <25 | <25 | 36.7 | –
12 | – | – | COC(=O)c1ccc(-c2nc3c(c(C#N)c4ccccn43)c3cccn23)cc1 [Compound 5j, Methyl 4-(12-cyanopyrrolo[1′,2′:1,6]pyrimido[5,4-b]indolizin-5-yl)benzoate] | 42.2 | 52.8 | <25 | <25 | <25 | –
13 | – | – | N#Cc1c2c3cccn3c(-c3ccccn3)nc2n2ccccc12 [Compound 5k, 5-(Pyridin-2-yl)pyrrolo[1′,2′:1,6]pyrimido[5,4-b]indolizine-12-carbonitrile] | 90.6 | 83.8 | 28.8 | <25 | 29.0 | –
14 | – | – | N#Cc1c2c3cccn3c(-c3cc4ccccc4[nH]3)nc2n2ccccc12 [Compound 5l, 5-(1H-Indol-2-yl)pyrrolo[1′,2′:1,6]pyrimido[5,4-b]indolizine-12-carbonitrile] | 99.2 | 62.3 | 58.6 | <25 | 46.9 | –
15 | – | – | N#Cc1c2c3cccn3c(-c3ccco3)nc2n2ccccc12 [Compound 5m, 5-(Furan-2-yl)pyrrolo[1′,2′:1,6]pyrimido[5,4-b]indolizine-12-carbonitrile] | 64.0 | 81.9 | <25 | <25 | <25 | –
16 | 2 | 1.47 | N#Cc1c2c3cccn3c(-c3cccnc3)nc2n2ccccc12 [Compound 5o, 5-(Pyridin-3-yl)pyrrolo[1′,2′:1,6]pyrimido[5,4-b]indolizine-12-carbonitrile] | – | – | – | – | – | 3.98
17 | 3.42 | 2.25 | COc1ccccc1-c1nc2c(c(C#N)c3ccccn32)c2cccn12 [Compound 5p, 5-(2-Methoxyphenyl)pyrrolo[1′,2′:1,6]pyrimido[5,4-b]indolizine-12-carbonitrile] | – | – | – | – | – | 16.2
18 | – | – | N#Cc1c2c3cccn3cnc2n2ccccc12 [Compound 8, Pyrrolo[1′,2′:1,6]pyrimido[5,4-b]indolizine-12-carbonitrile] | <25 | <25 | <25 | <25 | <25 | –
19 | – | – | N#Cc1c2c3[nH]c4ccccc4c3c(-c3ccccc3)nc2n2ccccc12 [Compound 10a, 7-Phenyl-12H-indolizino[2′,3′:5,6]pyrido[4,3-b]indole-13-carbonitrile] | <25 | 68.8 | 61.2 | 48.4 | 45.9 | –
20 | – | – | COc1ccc(-c2nc3c(c(C#N)c4ccccn43)c3[nH]c4ccccc4c23)cc1 [Compound 10b, 7-(4-Methoxyphenyl)-12H-indolizino[2′,3′:5,6]pyrido[4,3-b]indole-13-carbonitrile] | <25 | <25 | <25 | <25 | <25 | –
21 | – | – | N#Cc1c2c3[nH]c4ccccc4c3c(-c3ccc(Br)cc3)nc2n2ccccc12 [Compound 10c, 7-(4-Bromophenyl)-12H-indolizino[2′,3′:5,6]pyrido[4,3-b]indole-13-carbonitrile] | 39.6 | <25 | <25 | <25 | <25 | –
